Experimental findings from ChEMBL document CHEMBL5149971, “Pyridones in drug discovery: Recent advances” (Bioorg Med Chem Lett, 2021) are described below.

As usually defined, the Ki is a dissociation constant, usually derived from enzyme kinetics or from competition with a known ligand. As usually defined, the bioavailability is dose-corrected exposure relative to a reference, in per cent. The low end stands for little systemic uptake, the high end for much systemic uptake. By EC50 is commonly meant the midpoint of the concentration-response curve. For orientation: IC50 means the concentration that inhibits the measured activity by half.

The structures appear in SMILES notation.

For one data set, the target named is T1, Neutrophil elastase (Homo sapiens, UniProt P08246).
T1 sequence (P08246 whole entry): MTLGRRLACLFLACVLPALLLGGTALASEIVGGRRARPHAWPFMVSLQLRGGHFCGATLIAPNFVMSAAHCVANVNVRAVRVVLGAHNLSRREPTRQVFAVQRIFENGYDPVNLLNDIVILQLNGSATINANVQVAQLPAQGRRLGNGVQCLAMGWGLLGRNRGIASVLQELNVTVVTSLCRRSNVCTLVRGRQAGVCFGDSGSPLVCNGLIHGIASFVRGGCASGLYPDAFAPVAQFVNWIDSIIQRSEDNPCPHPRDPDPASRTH
Put plainly: Inhibition of human neutrophil elastase using methoxysuccinyl-Ala-Ala-Pro-Val-pnitroanilide as substrate by spectrophotometric analysis.

Data set [1] in a line: Oral bioavailability in hamster. Type of data set: ADME, organism-based, Mesocricetus auratus. The conditions noted are these: in vivo.
For data set [2], the system named is rhinovirus B14. Nature of the data set: Antiviral activity against Human rhinovirus 14 infected in H1-HeLa cells assessed as reduction in viral infection measured after 2 days by XTT dye reduction method. Format: functional, organism-based. The settings on record: Rhinovirus B, 48 h. On the technique in general: Tetrazolium assays rely on reduction of a dye to a coloured formazan, in cell work by metabolically active cells.

Data set [3] relates to rhinovirus B14. Nature of the data set: Antiviral activity against Human rhinovirus 14 infected in H1-HeLa cells assessed as reduction in viral infection measured after 5 days by XTT dye reduction method. Type of data set: functional, organism-based. The settings on record: Rhinovirus B, 120 h.
The nature of data set [4]: Inhibition of MEK (unknown origin) in the presence of [gamma33P]ATP by scintillation counting method. Further details: species or system Homo sapiens.

For `CC(C)C(NC(=O)[C@@H]1CCCN1C(=O)[C@@H](NC(=O)c1ccc(C(=O)NS(=O)(=O)c2ccc(Cl)cc2)cc1)C(C)C)C(N)=O` (stereo not given in full), the affinity on Neutrophil elastase corresponds to a Ki of 0.5 nM.
As for `CC(C)C(NC(=O)Cn1c(-c2ccc(F)cc2)ncc(N)c1=O)C(=O)C(F)(F)F` (stereo not given), in data set [1], the bioavailability stood at 77%.
Take `CCOC(=O)/C=C/[C@H](CCC(N)=O)NC(=O)[C@H](Cc1ccccc1)NC(=O)[C@H](CC(C)C)NC(=O)OCc1ccccc1`: the EC50 in the data set with rhinovirus B14 [2] is 540 nM.
As for `CCOC(=O)/C=C/[C@H](C[C@@H]1CCNC1=O)NC(=O)[C@@H](CC(=O)[C@@H](NC(=O)c1cc(C)on1)C(C)C)Cc1ccc(F)cc1`, the EC50 in the data set with rhinovirus B14 [3] came to 13 nM.
Regarding `CC(C)(C)c1nc2c3ccc(F)cc3c3c(=O)[nH]ccc3c2[nH]1`, in data set [4], the IC50 came to 160 nM.
